# Measurements taken from patent US8952024B2, “Herbicidal pyrimidone derivatives” (E I du Pont de Nemours and Company, priority 2009, dated 2015).
# Legend:
# Test in all cases: Test D pre-/postemergence plant response
# Type in all cases: in vivo
# [1] = tested on: morningglory (pitted morningglory, Ipomoea lacunosa)
# Procedure, shortened: (§1)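 Under greenhouse conditions for 14 to 21 days, plants treated pre- or postemergence with surfactant-formulated compound were compared by eye with untreated controls and scored 0–100 (100 = complete control; dash = no result).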
# [2] = tested on: guineagrass (Panicum maximum)
# Procedure, shortened: as §1
# [3] = tested on: naked crabgrass (Digitaria nuda)
# Procedure, shortened: as §1
# [4] = tested on: quackgrass (Elytrigia repens)
# Procedure, shortened: as §1
# [5] = tested on: black mustard (Brassica nigra)
# Procedure, shortened: as §1
# [6] = tested on: sowthistle (common sowthistle, Sonchus oleraceous)
# Procedure, shortened: as §1
# [7] = tested on: signalgrass (broadleaf signalgrass, Brachiaria platyphylla)
# Procedure, shortened: as §1
# [8] = tested on: large crabgrass (Digitaria sanguinalis)
# Procedure, shortened: as §1
# [9] = tested on: nutsedge (purple nutsedge, Cyperus rotundus)
# Procedure, shortened: as §1
# [10] = tested on: chickweed (common chickweed, Stellaria media); settings: Postemergence
# Procedure, shortened: as §1
# [11] = tested on: field bindweed (Convolvulus arvensis)
# Procedure, shortened: as §1
# [12] = tested on: purslane (common purslane, Portulaca oleracea)
# Procedure, shortened: as §1
# [13] = tested on: Russian thistle (Salsola kali)
# Procedure, shortened: as §1
# [14] = tested on: Italian ryegrass (Lolium multiflorum)
# Procedure, shortened: as §1
# [15] = tested on: groundsel (common groundsel, Senecio vulgaris); settings: Postemergence
# Procedure, shortened: as §1
# [16] = tested on: Surinam grass (Brachiaria decumbens)
# Procedure, shortened: as §1
# [17] = tested on: bermudagrass (Cynodon dactylon)
# Procedure, shortened: as §1
# [18] = Postemergence, 16 g ai/ha, scale 0 to 100
# [19] = Postemergence, 31 g ai/ha, scale 0 to 100
# [20] = Postemergence, 125 g ai/ha, scale 0 to 100 (0 no effect, 100 complete control)
# [21] = Postemergence, 62 g ai/ha, scale 0 to 100 (0 no effect, 100 complete control)
# [22] = Preemergence, 31 g ai/ha, scale 0 to 100 (0 no effect, 100 complete control)
# [23] = Preemergence, 62 g ai/ha, scale 0 to 100
# [24] = Preemergence, 125 g ai/ha, scale 0 to 100
# [25] = Preemergence, 16 g ai/ha, scale 0 to 100, 0 no effect, 100 complete control
# [26] = Postemergence, 31 g ai/ha, scale 0 to 100 (0 no effect, 100 complete control)
# [27] = 125 g ai/ha, scale 0 to 100 (0 no effect, 100 complete control)
# [28] = 62 g ai/ha, scale 0 to 100 (0 no effect, 100 complete control)
# [29] = Preemergence, rate not given, scale 0 to 100, 0 no effect, 100 complete control
smiles,measurement,setting,value
"O=C1CCCC(O)=C1C(=O)c1cnc(-c2ccccc2)n(C2CCCCC2)c1=O [Compound 128, 3-cyclohexyl-5-[(2-hydroxy-6-oxo-1-cyclohexen-1-yl)carbonyl]-2-phenyl-4(3H)-pyrimidinone]","Plant response rating, Morningglory",[1]; [18],65
same,"Plant response rating, Morningglory",[1]; [19],65
same,"Plant response rating, Morningglory",[1]; [20],70
same,"Plant response rating, Morningglory",[1]; [21],70
same,"Plant response rating, Morningglory",[1]; [22],0
same,"Plant response rating, Morningglory",[1]; [23],0
same,"Plant response rating, Morningglory",[1]; [24],90
same,"Plant response rating, Guineagrass",[2]; [18],20
same,"Plant response rating, Guineagrass",[2]; [19],30
same,"Plant response rating, Guineagrass",[2]; [20],35
same,"Plant response rating, Guineagrass",[2]; [21],30
same,"Plant response rating, Guineagrass",[2]; [25],0
same,"Plant response rating, Guineagrass",[2]; [22],0
same,"Plant response rating, Guineagrass",[2]; [23],0
same,"Plant response rating, Guineagrass",[2]; [24],0
same,"Plant response rating, Crabgrass, Naked",[3]; [18],35
same,"Plant response rating, Crabgrass, Naked",[3]; [19],65
same,"Plant response rating, Crabgrass, Naked",[3]; [20],75
same,"Plant response rating, Crabgrass, Naked",[3]; [21],70
same,"Plant response rating, Crabgrass, Naked",[3]; [25],0
same,"Plant response rating, Crabgrass, Naked",[3]; [22],0
same,"Plant response rating, Crabgrass, Naked",[3]; [23],0
same,"Plant response rating, Crabgrass, Naked",[3]; [24],75
same,"Plant response rating, Quackgrass",[4]; [18],0
same,"Plant response rating, Quackgrass",[4]; [19],0
same,"Plant response rating, Quackgrass",[4]; [20],5
same,"Plant response rating, Quackgrass",[4]; [21],0
same,"Plant response rating, Quackgrass",[4]; [25],0
same,"Plant response rating, Quackgrass",[4]; [22],0
same,"Plant response rating, Quackgrass",[4]; [24],0
same,"Plant response rating, Black Mustard",[5]; [18],95
same,"Plant response rating, Black Mustard",[5]; [26],95
same,"Plant response rating, Black Mustard",[5]; [20],95
same,"Plant response rating, Black Mustard",[5]; [21],95
same,"Plant response rating, Black Mustard",[5]; [25],60
same,"Plant response rating, Black Mustard",[5]; [22],60
same,"Plant response rating, Black Mustard",[5]; [23],85
same,"Plant response rating, Black Mustard",[5]; [24],95
same,"Plant response rating, Sowthistle",[6]; [18],100
same,"Plant response rating, Sowthistle",[6]; [19],100
same,"Plant response rating, Sowthistle",[6]; [20],100
same,"Plant response rating, Sowthistle",[6]; [21],100
same,"Plant response rating, Sowthistle",[6]; [25],80
same,"Plant response rating, Sowthistle",[6]; [22],80
same,"Plant response rating, Sowthistle",[6]; [24],100
same,"Plant response rating, Signalgrass",[7]; [18],0
same,"Plant response rating, Signalgrass",[7]; [19],30
same,"Plant response rating, Signalgrass",[7]; [20],35
same,"Plant response rating, Signalgrass",[7]; [21],35
same,"Plant response rating, Signalgrass",[7]; [25],0
same,"Plant response rating, Signalgrass",[7]; [22],0
same,"Plant response rating, Signalgrass",[7]; [24],5
same,"Plant response rating, Crabgrass, Large",[8]; [18],40
same,"Plant response rating, Crabgrass, Large",[8]; [19],50
same,"Plant response rating, Crabgrass, Large",[8]; [20],70
same,"Plant response rating, Crabgrass, Large",[8]; [21],60
same,"Plant response rating, Crabgrass, Large",[8]; [25],0
same,"Plant response rating, Crabgrass, Large",[8]; [22],25
same,"Plant response rating, Crabgrass, Large",[8]; [23],60
same,"Plant response rating, Nutsedge, Purple",[9]; [18],0
same,"Plant response rating, Nutsedge, Purple",[9]; [19],10
same,"Plant response rating, Nutsedge, Purple",[9]; [20],50
same,"Plant response rating, Nutsedge, Purple",[9]; [21],35
same,"Plant response rating, Nutsedge, Purple",[9]; [25],0
same,"Plant response rating, Nutsedge, Purple",[9]; [22],0
same,"Plant response rating, Nutsedge, Purple",[9]; [23],0
same,"Plant response rating, Nutsedge, Purple",[9]; [24],70
same,"Plant response rating, Chickweed","[10]; 16 g ai/ha, scale 0 to 100",60
same,"Plant response rating, Chickweed",[10]; [27],70
same,"Plant response rating, Chickweed",[10]; [28],65
same,"Plant response rating, Field Bindweed",[11]; [18],50
same,"Plant response rating, Field Bindweed",[11]; [19],50
same,"Plant response rating, Field Bindweed",[11]; [20],65
same,"Plant response rating, Field Bindweed",[11]; [21],65
same,"Plant response rating, Field Bindweed",[11]; [25],0
same,"Plant response rating, Field Bindweed",[11]; [22],0
same,"Plant response rating, Field Bindweed",[11]; [23],35
same,"Plant response rating, Field Bindweed",[11]; [24],98
same,"Plant response rating, Purslane",[12]; [18],30
same,"Plant response rating, Purslane",[12]; [19],30
same,"Plant response rating, Purslane",[12]; [20],50
same,"Plant response rating, Purslane",[12]; [21],30
same,"Plant response rating, Purslane",[12]; [25],0
same,"Plant response rating, Purslane",[12]; [22],0
same,"Plant response rating, Purslane",[12]; [23],100
same,"Plant response rating, Purslane",[12]; [24],100
same,"Plant response rating, Russian Thistle",[13]; [18],0
same,"Plant response rating, Russian Thistle",[13]; [19],0
same,"Plant response rating, Russian Thistle",[13]; [21],20
same,"Plant response rating, Russian Thistle",[13]; [22],0
same,"Plant response rating, Russian Thistle",[13]; [24],100
same,"Plant response rating, Ryegrass, Italian",[14]; [18],0
same,"Plant response rating, Ryegrass, Italian",[14]; [19],0
same,"Plant response rating, Ryegrass, Italian",[14]; [20],5
same,"Plant response rating, Ryegrass, Italian",[14]; [21],0
same,"Plant response rating, Ryegrass, Italian",[14]; [25],0
same,"Plant response rating, Ryegrass, Italian",[14]; [22],0
same,"Plant response rating, Ryegrass, Italian",[14]; [24],0
same,"Plant response rating, Ryegrass, Italian",[14]; [29],0
same,"Plant response rating, Groundsel","[15]; 16 g ai/ha, scale 0 to 100",100
same,"Plant response rating, Groundsel","[15]; 31 g ai/ha, scale 0 to 100",100
same,"Plant response rating, Groundsel",[15]; [27],100
same,"Plant response rating, Groundsel",[15]; [28],100
same,"Plant response rating, Surinam Grass",[16]; [19],25
same,"Plant response rating, Surinam Grass",[16]; [20],50
same,"Plant response rating, Surinam Grass",[16]; [21],30
same,"Plant response rating, Surinam Grass",[16]; [25],0
same,"Plant response rating, Surinam Grass",[16]; [22],35
same,"Plant response rating, Surinam Grass",[16]; [24],90
same,"Plant response rating, Surinam Grass",[16]; [29],80
same,"Plant response rating, Bermudagrass",[17]; [18],70
same,"Plant response rating, Bermudagrass",[17]; [26],70
same,"Plant response rating, Bermudagrass",[17]; [20],90
same,"Plant response rating, Bermudagrass",[17]; [21],80
same,"Plant response rating, Bermudagrass",[17]; [25],0
same,"Plant response rating, Bermudagrass",[17]; [22],0
same,"Plant response rating, Bermudagrass",[17]; [23],65
same,"Plant response rating, Bermudagrass",[17]; [24],75
